Laboratory results published in PMC4545913, “Dual EZH2 and EHMT2 histone methyltransferase inhibition increases biological efficacy in breast cancer cells” (Clinical Epigenetics, 2015).

Assays:
SPINK1 = assay: qRT-PCR of SPINK1 mRNA in MDA-MB-231 cells; assay type: cell-based; conditions: MDA-MB-231, multiple doses and time points
Protocol: Following compound treatment of MDA-MB-231 for 48 h (in 6-well plates), media was removed and 1.5 ml of TRIzol (Invitrogen) was added directly to lyse cells and RNA was isolated according to the manufacturer’s instructions. Reverse transcription was done using the SuperScript III First-Strand Synthesis System (Invitrogen) according to the manufacturer’s instructions. Each measurement was done in triplicate, and the List of Primers can be found in Additional file 2: Table S1. For normalisation, we have used GAPDH and RNA pol II. Experiments were also done with the ‘Fast Sybr Green Cell-to-CT™-Kit’ according to the manufacturer’s instructions (Applied Biosystem). Fifteen thousand cells per 96 well were plated, and after 24 h, treated with compounds at various concentrations.
For qRT-PCR measurements the 2x iQ SYBR Green Supermix (Bio-Rad), 200nM Primers and 0.4μl of cDNA /per 20μl reaction was used. The measurement was done in low-white 96-well plates (Bio-Rad) on a CFX96 Real-time System/C1000 Thermal Cycler (Bio-Rad) with the following protocol: 95°C for 3’; 95°C for 10’’, 56°C for 10’’, 72°C for 30’’ 42 cycles followed by a melting curve from 72°C to 95°C.

BT-474 = assay: MTT cell viability assay; assay type: cell-based; conditions: Homo sapiens, read-out: Cell growth IC50 BT-474
Protocol: (§1) For clonogenic assays, cells were treated with compound for 48 h, media were removed and replaced with fresh media for a further 12 days to measure colony formation. For cell viability assays, lymphoma cells were plated at 20,000 cells in 200 μl per well in U-bottom 96 well plates in RPMI medium +20 % FCS. Cells were re-suspended 48 h later, diluted 10-fold in PBS + propidium iodide (PI) and the concentration of PI negative cells was counted using an Attune flow cytometer with autosampler. Breast cancer cells were seeded at a density of 10,000 cells/well in a sterile 96 clear-well plate with 150 μl of DMEM (+10 % FCS and 2 mM L-Glutamine). Each compound treatment was performed in triplicate for 72 h at concentrations of 100 nM and 1, 5, 10 and 50 μM in 100 μl of full-medium. After 72 h, 20 μl of MTT solution (3 mg of MTT Formazan, Sigma/1 ml PBS) was added to the medium and incubated for 4 h at 37 °C in a CO2 incubator. The MTT-product was solubilised with 100 μl DMSO, and for 1 h, incubated in the dark at room temperature. The optical density was read at 570 nm with PHERAstar.

MCF-7 = assay: MTT cell viability assay; assay type: cell-based; conditions: Homo sapiens, MCF7, read-out: Cell growth IC50 MCF-7
Protocol: as §1

SkBr3 = assay: MTT cell viability assay; assay type: cell-based; conditions: Homo sapiens, SK-BR-3, read-out: Cell growth IC50 SkBr3
Protocol: as §1

T-47D = assay: MTT cell viability assay; assay type: cell-based; conditions: Homo sapiens, T47D, read-out: Cell growth IC50 T-47D
Protocol: as §1

[1] = target: trimeric PRC2 complex (EZH2:EED:SUZ12) (Homo sapiens, UniProt O75530+Q15022+Q15910); assay: PRC2 enzymatic assay (SPA-type), biotinylated-H3 (21–44) peptide substrate; assay type: biochemical; conditions: EZH2:EED:SUZ12, biotinylated-H3 (21–44) peptide substrate
Excerpt: (§2) A trimeric PRC2 complex (EZH2:EED:SUZ12) was employed in this assay, along with a biotinylated-H3 (21–44) peptide substrate. […] Since the peptide substrates used in these assays are poor models for the complex and dynamic structure of the chromatin substrate in cells and since the only minimal number of PRC2 proteins (EZH2:EED:SUZ12) required for enzymatically active EZH2 were employed in the PRC2 assay, care should be taken in the over interpretation of this in vitro inhibitory data.

[2] = target: trimeric PRC2 complex (EZH2:EED:SUZ12) (Homo sapiens, UniProt Q15910); assay: as above; assay type: biochemical; conditions: mechanism of inhibition studies (Figure S4)
Excerpt: as §2

[3] = tested on: H3K27me3 and H3K9me3 at target genes; assay: Chromatin immunoprecipitation (ChIP-PCR) in MDA-MB-231 cells; assay type: cell-based; conditions: MDA-MB-231, 2.5 μM, 24 h
Excerpt: Fig. 3 Effects of hit compounds on RNA levels and histone marks. a Sybr green real-time PCR mRNA level measurement of EZH2 target genes and executing enzymes following a 48-h compound treatment at different concentrations of MDA-MB-231 cells. Measurements marked with an ‘*’ are below detection limit, most likely due to cell death. […] Error bars represent the mean ± SD of experiment performed in technical triplicate. b Sybr green real-time PCR measurement of the FBXO32 transcription start site and KRT17 promoter region following chromatin immunoprecipitation, using antibodies to the histone marks shown, of MDA-MB-231 cells treated with three selected compounds at 5 μM for 72 h. […] The fold difference to the untreated sample is shown. Each IP-value has been determined as the relative increase to the no-antibody control and then normalised to GAPDH levels
Fig. 4 Compound-induced upregulation of EZH2-repressed target genes. a Enrichment scores for differential expression of EZH2 targets on treatment with panel of compounds. […] Each IP-value has been determined as the relative increase to the no-antibody control and is shown as fold difference relative to the untreated control. d Western blot showing levels of modified histones, following a 48-h treatment with HKMTI-1-005 at different doses. […]

trimeric PRC2 complex (EZH2:EED:SUZ12) (Homo sapiens, UniProt O75530+Q15022+Q15910), sequence (Q15910 whole entry): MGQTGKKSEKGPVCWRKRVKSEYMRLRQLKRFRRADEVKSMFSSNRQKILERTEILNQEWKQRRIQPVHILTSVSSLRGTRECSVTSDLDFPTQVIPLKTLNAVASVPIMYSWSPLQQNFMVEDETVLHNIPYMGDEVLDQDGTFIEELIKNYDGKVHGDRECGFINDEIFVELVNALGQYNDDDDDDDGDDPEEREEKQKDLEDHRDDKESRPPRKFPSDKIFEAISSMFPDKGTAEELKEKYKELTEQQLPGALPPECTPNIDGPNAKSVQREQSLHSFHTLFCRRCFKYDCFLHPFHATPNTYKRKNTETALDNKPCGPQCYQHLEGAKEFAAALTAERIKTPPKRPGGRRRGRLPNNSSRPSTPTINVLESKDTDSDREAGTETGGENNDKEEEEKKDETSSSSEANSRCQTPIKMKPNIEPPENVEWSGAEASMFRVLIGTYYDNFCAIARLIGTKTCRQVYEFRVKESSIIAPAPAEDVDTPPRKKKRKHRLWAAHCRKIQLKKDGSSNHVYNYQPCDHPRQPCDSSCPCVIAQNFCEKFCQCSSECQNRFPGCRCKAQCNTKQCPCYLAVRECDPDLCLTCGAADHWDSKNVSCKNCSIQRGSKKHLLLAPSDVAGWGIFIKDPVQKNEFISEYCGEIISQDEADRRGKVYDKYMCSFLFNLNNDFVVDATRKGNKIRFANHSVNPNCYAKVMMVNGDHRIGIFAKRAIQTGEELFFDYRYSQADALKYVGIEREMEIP
trimeric PRC2 complex (EZH2:EED:SUZ12) (Homo sapiens, UniProt O75530+Q15022+Q15910), sequence (O75530 whole entry partner): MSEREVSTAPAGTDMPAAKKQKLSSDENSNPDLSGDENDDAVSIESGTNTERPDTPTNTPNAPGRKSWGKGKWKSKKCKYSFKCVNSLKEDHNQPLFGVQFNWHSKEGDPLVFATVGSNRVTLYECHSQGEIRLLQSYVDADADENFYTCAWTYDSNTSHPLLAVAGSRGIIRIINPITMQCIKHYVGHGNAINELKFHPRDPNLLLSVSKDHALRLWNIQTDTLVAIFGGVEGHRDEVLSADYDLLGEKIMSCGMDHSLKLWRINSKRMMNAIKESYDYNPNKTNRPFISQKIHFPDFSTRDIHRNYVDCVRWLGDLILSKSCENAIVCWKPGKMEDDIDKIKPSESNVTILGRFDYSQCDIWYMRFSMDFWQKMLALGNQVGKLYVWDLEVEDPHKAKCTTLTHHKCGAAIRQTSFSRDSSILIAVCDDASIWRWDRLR
trimeric PRC2 complex (EZH2:EED:SUZ12) (Homo sapiens, UniProt O75530+Q15022+Q15910), sequence (Q15022 whole entry partner): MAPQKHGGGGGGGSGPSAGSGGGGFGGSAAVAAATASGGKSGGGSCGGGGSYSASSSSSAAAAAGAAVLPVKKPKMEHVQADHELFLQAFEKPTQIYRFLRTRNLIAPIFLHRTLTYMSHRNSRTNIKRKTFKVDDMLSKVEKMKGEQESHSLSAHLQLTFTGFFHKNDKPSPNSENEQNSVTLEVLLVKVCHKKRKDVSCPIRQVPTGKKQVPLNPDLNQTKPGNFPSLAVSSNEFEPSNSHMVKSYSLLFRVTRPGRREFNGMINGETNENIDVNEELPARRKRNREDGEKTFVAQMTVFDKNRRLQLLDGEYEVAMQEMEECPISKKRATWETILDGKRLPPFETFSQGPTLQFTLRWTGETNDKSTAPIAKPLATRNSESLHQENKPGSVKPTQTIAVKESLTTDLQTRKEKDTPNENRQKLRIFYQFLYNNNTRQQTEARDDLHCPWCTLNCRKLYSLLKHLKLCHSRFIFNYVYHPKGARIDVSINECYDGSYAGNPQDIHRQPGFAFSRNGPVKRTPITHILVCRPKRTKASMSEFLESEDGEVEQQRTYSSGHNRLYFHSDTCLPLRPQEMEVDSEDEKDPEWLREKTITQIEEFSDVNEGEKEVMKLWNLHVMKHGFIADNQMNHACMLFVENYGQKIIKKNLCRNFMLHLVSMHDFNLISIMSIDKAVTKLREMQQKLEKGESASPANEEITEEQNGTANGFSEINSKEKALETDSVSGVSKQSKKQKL
trimeric PRC2 complex (EZH2:EED:SUZ12) (Homo sapiens, UniProt Q15910), sequence (Q15910 whole entry): as the sequence (Q15910 whole entry) above
trimeric PRC2 complex (EZH2:EED:SUZ12) (Homo sapiens, UniProt Q15910), sequence (O75530 whole entry partner): as the sequence (O75530 whole entry partner) above
trimeric PRC2 complex (EZH2:EED:SUZ12) (Homo sapiens, UniProt Q15910), sequence (Q15022 whole entry partner): as the sequence (Q15022 whole entry partner) above

IC50 (BT-474): 2.1 µM | IC50 (MCF-7): 7.7 µM | IC50 (T-47D): 8.5 µM | IC50 [1]: 24 µM | Mechanism of PRC2 inhibition [2]: peptide substrate competitive
Structure (SMILES): COc1cc2nc(N3CCN(C)CC3)nc(NC3CCN(Cc4ccccc4)CC3)c2cc1OC [HKMTI-1-005]
SPINK1 expression upon treatment (SPINK1): increased | IC50 (SkBr3): 7.7 µM | H3K27me3 and H3K9me3 at the SPINK1 transcription start site (ChIP-PCR) [3]: reduction in both H3K27me3 and H3K9me3
